Assay results from patent US20260265262A1, “CDK2 INHIBITORS AND METHODS OF USING THE SAME” (Cedilla Therapeutics, Inc., priority 2022, published 2026).

Key:
[1] = biological target: CDK2/Cyclin E1 (Homo sapiens, UniProt P24941); assay: ADP-Glo Luminescent Kinase Assay (CDK2/E1-37C); assay type: biochemical; conditions: 0.18 nM CDK2/Cyclin E1, 100 μM ATP, 1.5 μM Histone H1, 37° C., 60 min pre-incubation; read-out: ADPGLO (CDK2/E1-37C): IC50
Protocol: Inhibition of CDK2/Cyclin E1 activity by the presence of small molecules was evaluated using ADP-Glo Luminescent Kinase Assay (Promega). Activated CDK2/Cyclin E1 was incubated with its substrate Histone H1 (SignalChem H10-54N) in the kinase reaction buffer (100 μM ATP, 50 mM HEPES pH 7.5, 10 mM MgCl2, 1 mM EDTA, 2 mM DTT, 0.01% Brij35, 0.5 mg/mL BSA). Luminescence was recorded with an Envision plate reader (PerkinElmer).
Dose titrations of inhibitors in 100% DMSO were combined with 0.36 nM CDK2/Cyclin E1 in reaction buffer. The mixtures were incubated for 60 minutes at 37° C. before the addition of ATP and Histone H1 substrate to initiate the kinase reaction. The final conditions were 0.18 nM CDK2/Cyclin E1, 100 μM ATP, and 1.5 μM Histone H1. The reactions were incubated at 37° C. for 90 minutes before being stopped with the addition of ADP-Glo reagent. This mixture was incubated at room temperature for 60 minutes before Kinase Detection Solution is added to generate luminescence. The stopped reactions were analyzed on an Envision plate reader. The conversion ratios were normalized to yield % activity, plotted against compound concentration, and fit to a four-parameter equation to determine the IC50 for each compound.

[2] = test system: Kuramochi cells; assay: IncuCyte cell proliferation assay; assay type: cell-based; conditions: Kuramochi cells labeled with mApple-H2B, cell count 0 to 72 hours, 20 μM top concentration; read-out: IncuCyte Kuramochi RB-WT: IC50
Protocol: IncuCyte® assay was used to measure the effect of disclosed compounds on cell proliferation. Fluorescent microscopy images of cells were taken immediately after compound treatment and 72 hours later. Image analysis software was used to obtain cell counts as a function of compound concentration. Kuramochi cells labeled with mApple-H2B were seeded on 384-well assay-ready plates. Plates were placed in an IncuCyte® (Sartorius) and scanned at 0 and 72 hours. IncuCyte® software was used to count the number of fluorescent nuclei in each well. The fold change in cell count from 0 to 72 hours in wells treated with increasing compounds concentrations (10 pts, 1/2 log dilution, 20 μM top concentration) was normalized to DMSO control wells. The normalized cell counts were fit with dose response curves and a […] was calculated.

SMILES	IC50 [1]	IC50 [2]
C[C@@H](OCC12CCC(CC1)OC2)[C@H](NC(=O)[C@@H]1CN(C(=O)c2cnn(Cc3ccccc3C(=O)O)c2)CC12CN(C(=O)C1(C(F)(F)F)CC1)C2)C(=O)N1CCN(Cc2ccc(C(F)(F)F)cc2)CC1 [Example I-14, 2-((4-((S)-8-(((2S,3R)-3-((2-oxabicyclo[2.2.2]octan-4-yl)methoxy)-1-oxo-1-(4-(4-(trifluoromethyl)benzyl)piperazin-1-yl)butan-2-yl)carbamoyl)-2-(1-(trifluoromethyl)cyclopropane-1-carbonyl)-2,6-diazaspiro[3.4]octane-6-carbonyl)-1H-pyrazol-1-yl)methyl)benzoic acid]	< 0.5 µM	> 20 µM
C[C@@H](OCC12CCC(CC1)OC2)[C@H](NC(=O)[C@@H]1CN(C(=O)c2cnn(Cc3ccccc3C(=O)OC(C)(C)C)c2)CC12CN(C(=O)C1(C(F)(F)F)CC1)C2)C(=O)NCCC1CCN(C(=O)OC(C)(C)C)CC1 [Example I-103]	< 0.5 µM	0.5 to 5 µM
CCCN1CCC2(CC1)CCN(C(=O)C(NC(=O)C1CN(C(=O)c3cnn(Cc4ccccc4C(=O)O)c3)CC13CN(C(=O)C1(C(F)(F)F)CC1)C3)C(C)OCC13CCC(CC1)OC3)CC2 (stereo not drawn) [Example I-115]	< 0.5 µM	> 20 µM
C[C@@H](OCC1(C(F)(F)F)CC1)[C@H](NC(=O)[C@@H]1CN(C(=O)c2cnn(Cc3ccc(C(F)(F)F)cc3)c2)CC12CN(C(=O)C1(C(F)(F)F)CC1)C2)C(=O)N1CCC(c2ccc(C(=O)O)cc2)CC1 [Example I-68, 4-(1-(N—((S)-6-(1-(4-(trifluoromethyl)benzyl)-1H-pyrazole-4-carbonyl)-2-(1-(trifluoromethyl)cyclopropane-1-carbonyl)-2,6-diazaspiro[3.4]octane-8-carbonyl)-O-((1-(trifluoromethyl)cyclopropyl)methyl)-L-threonyl)piperidin-4-yl)benzoic acid]	0.5 to 5 µM	> 20 µM
COC(=O)CCNC(=O)[C@@H](NC(=O)[C@@H]1CN(C(=O)c2cnn(Cc3ccc(C(F)(F)F)cc3)c2)CC12CN(C(=O)C1(C(F)(F)F)CC1)C2)[C@@H](C)OCC12CCC(CC1)OC2 [Example I-84]	0.5 to 5 µM	< 0.5 µM
C[C@@H](OCC12CCC(CC1)OC2)[C@H](NC(=O)[C@@H]1CN(C(=O)c2cnc(O)cn2)CC12CN(C(=O)C1(C(F)(F)F)CC1)C2)C(=O)N1CCC(c2ccc(C(F)(F)F)cc2C(=O)O)CC1 [Example I-1, 2-(1-(O-((2-oxabicyclo[2.2.2]octan-4-yl)methyl)-N—((S)-6-(5-hydroxypyrazine-2-carbonyl)-2-(1-(trifluoromethyl)cyclopropane-1-carbonyl)-2,6-diazaspiro[3.4]octane-8-carbonyl)-L-threonyl)piperidin-4-yl)-5-(trifluoromethyl)benzoic acid]	< 0.5 µM	> 20 µM
C[C@@H](OCC12CCC(CC1)OC2)[C@H](NC(=O)[C@@H]1CN(C(=O)c2cnn(Cc3ccccc3C(=O)O)c2)CC12CN(C(=O)C1(C(F)(F)F)CC1)C2)C(=O)NCCC1CCNCC1 (stereo in doubt) [Example I-102]	0.5 to 5 µM	> 20 µM
C[C@@H](OCC1CCCCC1)[C@H](NC(=O)[C@@H]1CN(C(=O)c2cnn(Cc3ccccc3)c2)CC12CN(C(=O)[C@H]1CC1(C)C)C2)C(=O)NS(=O)(=O)c1ccc(F)cc1F [Example I-26, (S)-6-(1-benzyl-1H-pyrazole-4-carbonyl)-N-((2S,3R)-3-(cyclohexylmethoxy)-1-((2,4-difluorophenyl)sulfonamido)-1-oxobutan-2-yl)-2-((S)-2,2-dimethylcyclopropane-1-carbonyl)-2,6-diazaspiro[3.4]octane-8-carboxamide]	< 0.5 µM	0.5 to 5 µM
C[C@@H](OCC12CCC(CC1)OC2)[C@H](NC(=O)[C@@H]1CN(C(=O)c2cnn(Cc3ccc(C(F)(F)F)cc3)c2)CC12CN(C(=O)C1(C(F)(F)F)CC1)C2)C(=O)NCCc1nnn[nH]1 [Example I-16]	5 to 10 µM	> 20 µM
